# According to ChEMBL document CHEMBL1201862, “PubChem BioAssay data set” (2004):
#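 Growth conditions: 96-well plates. Treatment: test compound, 48 hours, 5 concentrations. Analysis: linear interpolation between bracketing concentrations; unreached endpoints set to highest concentration. Here, GI50 denotes the concentration required for 50% inhibition of growth.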 The source made the active and inactive calls. No stated cut-off is given here; in the data, active = GI50 up to about 1.1 µM and inactive = higher.
# Experiments:
# Assay in all cases: NCI tumour cell line growth inhibition, 48 h
# 786-0 = system: 786-0
# A549 = system: A549
# ACHN = system: ACHN
# CCRF-CEM = system: CCRF-CEM
# COLO 205 = system: COLO 205
# DLD-1 = system: DLD-1
# DMS-114 = system: DMS-114
# DMS-273 = system: DMS-273
# EKVX = system: EKVX
# HCC 2998 = system: HCC 2998
# HCT-116 = system: HCT-116
# HCT-15 = system: HCT-15
# HL-60 = system: HL-60
# HOP-62 = system: HOP-62
# HT-29 = system: HT-29
# IGROV-1 = system: IGROV-1
# K562 = system: K562
# KM-20L2 = system: KM-20L2
# KM12 = system: KM12
# LOX IMVI = system: LOX IMVI
# LXFL 529 = system: LXFL 529
# M14 = system: M14
# M19-MEL = system: M19-MEL
# MOLT-4 = system: MOLT-4
# Malme-3M = system: Malme-3M
# NCI-H226 = system: NCI-H226
# NCI-H23 = system: NCI-H23
# NCI-H460 = system: NCI-H460
# NCI-H522 = system: NCI-H522
# OVCAR-3 = system: OVCAR-3
# OVCAR-8 = system: OVCAR-8
# RPMI-8226 = system: RPMI-8226
# RXF 393 = system: RXF 393
# SF-268 = system: SF-268
# SF-295 = system: SF-295
# SF-539 = system: SF-539
# SK-MEL-28 = system: SK-MEL-28
# SK-OV-3 = system: SK-OV-3
# SN12C = system: SN12C
# SNB-19 = system: SNB-19
# SNB-75 = system: SNB-75
# SNB-78 = system: SNB-78
# SR = system: SR
# SW-620 = system: SW-620
# TK-10 = system: TK-10
# U-251 = system: U-251
# UACC-257 = system: UACC-257
# UACC-62 = system: UACC-62
# UO-31 = system: UO-31
# A498 = system: A498
# CAKI-1 = system: CAKI-1
# HOP-92 = system: HOP-92
# OVCAR-4 = system: OVCAR-4
# OVCAR-5 = system: OVCAR-5
# SK-MEL-2 = system: SK-MEL-2
# SK-MEL-5 = system: SK-MEL-5
smiles,measurement,setting,value
CC(=O)OC1C=CC2CCN3C(=O)c4cc5c(cc4[C@H]1C23)OCO5 (stereo partly specified),GI50,786-0,> 100 µM (inactive)
same,GI50,A549,> 100 µM (inactive)
same,GI50,ACHN,> 100 µM (inactive)
same,GI50,CCRF-CEM,> 100 µM (inactive)
same,GI50,COLO 205,> 100 µM (inactive)
same,GI50,DLD-1,> 100 µM (inactive)
same,GI50,DMS-114,> 100 µM (inactive)
same,GI50,DMS-273,> 100 µM (inactive)
same,GI50,EKVX,> 100 µM (inactive)
same,GI50,HCC 2998,> 10 µM (inactive)
same,GI50,HCT-116,> 100 µM (inactive)
same,GI50,HCT-15,> 100 µM
same,GI50,HL-60,> 100 µM (inactive)
same,GI50,HOP-62,> 100 µM (inactive)
same,GI50,HT-29,> 100 µM (inactive)
same,GI50,IGROV-1,> 100 µM (inactive)
same,GI50,K562,> 100 µM (inactive)
same,GI50,KM-20L2,> 100 µM (inactive)
same,GI50,KM12,> 100 µM (inactive)
same,GI50,LOX IMVI,> 100 µM (inactive)
same,GI50,LXFL 529,> 100 µM (inactive)
same,GI50,M14,> 100 µM (inactive)
same,GI50,M19-MEL,> 100 µM (inactive)
same,GI50,MOLT-4,> 100 µM (inactive)
same,GI50,Malme-3M,> 100 µM (inactive)
same,GI50,NCI-H226,> 100 µM (inactive)
same,GI50,NCI-H23,> 100 µM (inactive)
same,GI50,NCI-H460,> 100 µM (inactive)
same,GI50,NCI-H522,> 100 µM (inactive)
same,GI50,OVCAR-3,> 100 µM (inactive)
same,GI50,OVCAR-8,> 100 µM (inactive)
same,GI50,RPMI-8226,> 100 µM (inactive)
same,GI50,RXF 393,> 100 µM (inactive)
same,GI50,SF-268,> 100 µM (inactive)
same,GI50,SF-295,> 100 µM (inactive)
same,GI50,SF-539,> 100 µM (inactive)
same,GI50,SK-MEL-28,> 100 µM (inactive)
same,GI50,SK-OV-3,> 100 µM (inactive)
same,GI50,SN12C,> 100 µM (inactive)
same,GI50,SNB-19,> 100 µM (inactive)
same,GI50,SNB-75,> 100 µM (inactive)
same,GI50,SNB-78,> 100 µM (inactive)
same,GI50,SR,> 100 µM (inactive)
same,GI50,SW-620,> 100 µM (inactive)
same,GI50,TK-10,> 100 µM (inactive)
same,GI50,U-251,> 100 µM (inactive)
same,GI50,UACC-257,> 100 µM (inactive)
same,GI50,UACC-62,> 100 µM (inactive)
same,GI50,UO-31,> 100 µM (inactive)
CC(=O)N(N=O)c1ccc(N(N=O)C(C)=O)cc1,GI50,786-0,> 100 µM (inactive)
same,GI50,A498,> 100 µM (inactive)
same,GI50,A549,> 100 µM (inactive)
same,GI50,ACHN,> 100 µM (inactive)
same,GI50,CAKI-1,> 100 µM (inactive)
same,GI50,CCRF-CEM,> 100 µM (inactive)
same,GI50,COLO 205,> 100 µM (inactive)
same,GI50,DLD-1,> 100 µM (inactive)
same,GI50,DMS-114,> 100 µM (inactive)
same,GI50,DMS-273,> 100 µM (inactive)
same,GI50,HCC 2998,> 100 µM (inactive)
same,GI50,HCT-116,> 100 µM (inactive)
same,GI50,HCT-15,> 100 µM
same,GI50,HL-60,> 100 µM (inactive)
same,GI50,HOP-62,> 100 µM (inactive)
same,GI50,HOP-92,> 100 µM (inactive)
same,GI50,HT-29,> 100 µM (inactive)
same,GI50,IGROV-1,> 100 µM (inactive)
same,GI50,K562,> 100 µM (inactive)
same,GI50,KM-20L2,> 100 µM (inactive)
same,GI50,LOX IMVI,> 100 µM (inactive)
same,GI50,LXFL 529,> 100 µM (inactive)
same,GI50,M14,> 100 µM (inactive)
same,GI50,M19-MEL,> 100 µM (inactive)
same,GI50,MOLT-4,> 100 µM (inactive)
same,GI50,Malme-3M,> 100 µM (inactive)
same,GI50,NCI-H226,> 100 µM (inactive)
same,GI50,NCI-H23,> 100 µM (inactive)
same,GI50,NCI-H460,> 100 µM (inactive)
same,GI50,NCI-H522,> 100 µM (inactive)
same,GI50,OVCAR-3,> 100 µM (inactive)
same,GI50,OVCAR-4,> 100 µM (inactive)
same,GI50,OVCAR-5,> 100 µM (inactive)
same,GI50,OVCAR-8,> 100 µM (inactive)
same,GI50,RPMI-8226,> 100 µM (inactive)
same,GI50,RXF 393,> 100 µM (inactive)
same,GI50,SF-268,> 100 µM (inactive)
same,GI50,SF-295,> 100 µM (inactive)
same,GI50,SF-539,> 100 µM (inactive)
same,GI50,SK-MEL-28,> 100 µM (inactive)
same,GI50,SK-MEL-2,> 100 µM (inactive)
same,GI50,SK-MEL-5,> 100 µM (inactive)
same,GI50,SK-OV-3,> 100 µM (inactive)
same,GI50,SN12C,> 100 µM (inactive)
same,GI50,SNB-19,> 100 µM (inactive)
same,GI50,SNB-75,> 100 µM (inactive)
same,GI50,SNB-78,> 100 µM (inactive)
same,GI50,SR,> 100 µM (inactive)
same,GI50,SW-620,> 100 µM (inactive)
same,GI50,U-251,> 100 µM (inactive)
same,GI50,UACC-62,> 100 µM (inactive)
same,GI50,UO-31,> 100 µM (inactive)
